Laboratory results published in patent US10927105B1 (Lundbeck La Jolla Research Center, Inc., priority 2017, dated 2021).

Each compound was assayed against MAGL (Homo sapiens (Human), UniProt Q99685) (assay: In vitro competitive activity-based protein profiling (human prefrontal cortex membrane fractions, FP-Rh probe), MAGL band). Conditions: read-out: MAGL IC50 (μM) (human); human prefrontal cortex membrane fractions.
Chain of MAGL (Q99685 whole entry): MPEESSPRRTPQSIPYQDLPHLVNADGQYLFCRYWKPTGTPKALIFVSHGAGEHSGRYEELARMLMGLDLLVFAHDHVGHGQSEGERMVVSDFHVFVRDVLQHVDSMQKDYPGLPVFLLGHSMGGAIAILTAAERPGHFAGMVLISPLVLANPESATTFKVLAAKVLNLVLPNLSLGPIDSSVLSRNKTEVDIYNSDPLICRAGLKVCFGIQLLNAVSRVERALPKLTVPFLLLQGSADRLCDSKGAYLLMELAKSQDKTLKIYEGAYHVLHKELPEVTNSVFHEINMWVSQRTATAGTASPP
Description: Biological Evaluation In Vitro Competitive Activity-Based Protein Profiling.
Proteomes (mouse brain membrane fraction for mouse assays; human prefrontal cortex membrane fractions for human assays) (50 mL, 1.0 mg/mL total protein concentration) were preincubated with varying concentrations of inhibitors at 37° C. After 30 min, FP-Rh (1.0 mL, 50 mM in DMSO) was added and the mixture was incubated for another 30 min at 37° C. Reactions were quenched with SDS loading buffer (15 μL-4×) and run on SDS-PAGE.

SMILES	IC50
O=C(O)c1ccn(C(=O)N2C[C@H]3C[C@H](Oc4cccc(-c5nccs5)c4)C[C@H]3C2)n1 [Example 261, 1-(trans-5-(3-(thiazol-2-yl)phenoxy)-octahydrocyclopenta-[c]pyrrole-2-carbonyl)-1H-pyrazole-3-carboxylic acid]	< 0.1 µM
O=C(O)c1ccn(C(=O)N2CCN(Cc3cccc(Oc4ccc(F)cn4)c3)CC2)n1 [Example 266, 1-(4-(3-((5-fluoropyridin-2-yl)oxy)benzyl)-piperazine-1-carbonyl)-1H-pyrazole-3-carboxylic acid]	< 0.1 µM
O=C(O)c1ccn(C(=O)N2C[C@H]3C[C@H](Oc4ccccc4C4CCOCC4)C[C@H]3C2)n1 [Example 268, 1-(trans-5-(2-(tetrahydro-2H-pyran-4-yl)phenoxy)-octahydrocyclopenta-[c]pyrrole-2-carbonyl)-1H-pyrazole-3-carboxylic acid]	< 0.1 µM
O=C(O)c1ccn(C(=O)N2CCN(Cc3cc(Cl)cc(-c4cncnc4)c3)CC2)n1 [Example 269, 1-(4-(3-chloro-5-(pyrimidin-5-yl)benzyl)-piperazine-1-carbonyl)-1H-pyrazole-3-carboxylic acid]	< 0.1 µM
C[C@H]1CN(Cc2cc(Cl)cc(C(F)(F)F)c2)CCN1C(=O)n1ccc(C(N)=O)n1 [Example 271, (S)-1-(4-(3-chloro-5-(trifluoromethyl)-benzyl)-2-methylpiperazine-1-carbonyl)-1H-pyrazole-3-carboxamide]	< 0.1 µM
C[C@@H]1CN(Cc2cc(Cl)cc(C(F)(F)F)c2)CCN1C(=O)n1ccc(C(N)=O)n1 [Example 272, (R)-1-(4-(3-chloro-5-(trifluoromethyl)-benzyl)-2-methylpiperazine-1-carbonyl)-1H-pyrazole-3-carboxamide]	< 0.1 µM
O=C(O)c1ccn(C(=O)N2CCN(Cc3ccc(Cl)c(-c4nccs4)c3)CC2)n1 [Example 274, 1-(4-(4-chloro-3-(thiazol-2-yl)benzyl)-piperazine-1-carbonyl)-1H-pyrazole-3-carboxylic acid]	< 0.1 µM
O=C(O)c1ccn(C(=O)N2CCC(OCc3cc(Cl)cc(C(F)(F)F)c3)CC2)n1 [Example 275, 1-(4-((3-chloro-5-(trifluoromethyl)-benzyl)oxy)-piperidine-1-carbonyl)-1H-pyrazole-3-carboxylic acid]	< 0.1 µM
O=C(O)c1ccn(C(=O)N2CCC(OCc3ccc(Cl)c(C(F)(F)F)c3)CC2)n1 [Example 276, 1-(4-((4-chloro-3-(trifluoromethyl)-benzyl)oxy)-piperidine-1-carbonyl)-1H-pyrazole-3-carboxylic acid]	< 0.1 µM
O=C(O)c1ccn(C(=O)N2C[C@H]3C[C@H](OCc4cccc(-c5ccccc5)c4)C[C@H]3C2)n1 [Example 278, 1-(trans-5-([1,1′-biphenyl]-3-ylmethoxy)-octahydrocyclopenta-[c]pyrrole-2-carbonyl)-1H-pyrazole-3-carboxylic acid]	< 0.1 µM
Cc1cn(C(=O)N2C[C@H]3C[C@H](Oc4cccc(-c5ccccc5)c4)C[C@H]3C2)nc1C(=O)O [Example 280, 1-(trans-5-([1,1′-biphenyl]-3-yloxy)-octahydrocyclopenta-[c]pyrrole-2-carbonyl)-4-methyl-1H-pyrazole-3-carboxylic acid]	< 0.1 µM
COc1cc(-c2ccccc2)ccc1CN1CCN(C(=O)n2ccc(C(=O)O)n2)[C@H](C)C1 [Example 283, (R)-1-(4-((3-methoxy-[1,1′-biphenyl]-4-yl)methyl)-2-methylpiperazine-1-carbonyl)-1H-pyrazole-3-carboxylic acid]	< 0.1 µM
NC(=O)c1ccn(C(=O)N2CCC3(CCN(Cc4cccc(C(F)(F)F)c4)C3)CC2)n1 [Example 284, 1-(2-(3-(trifluoromethyl)-benzyl)-2,8-diazaspiro[4.5]-decane-8-carbonyl)-1H-pyrazole-3-carboxamide]	< 0.1 µM
O=C(O)c1ccn(C(=O)N2CCC3(CCN(Cc4cccc(Cl)c4Cl)C3)CC2)n1 [Example 286, 1-(2-(2,3-dichlorobenzyl)-2,8-diazaspiro[4.5]-decane-8-carbonyl)-1H-pyrazole-3-carboxylic acid]	< 0.1 µM

Next, values leading:

IC50	SMILES
< 0.1 µM	O=C(O)c1ccn(C(=O)N2C[C@H]3C[C@H](Oc4cccc(-c5ccccn5)c4)C[C@H]3C2)n1 [Example 242, 1-(trans-5-(3-(pyridin-2-yl)phenoxy)-octahydrocyclopenta-[c]pyrrole-2-carbonyl)-1H-pyrazole-3-carboxylic acid]
< 0.1 µM	O=C(O)c1ccn(C(=O)N2C[C@H]3C[C@H](Oc4ccccc4-c4cccnc4)C[C@H]3C2)n1 [Example 244, 1-(trans-5-(2-(pyridin-3-yl)phenoxy)-octahydrocyclopenta-[c]pyrrole-2-cathonyl)-1H-pyrazole-3-carboxylic acid]
< 0.1 µM	Cc1cc(-c2ccccc2)ccc1CN1CCN(C(=O)n2ccc(C(=O)O)n2)[C@H](C)C1 [Example 245, (R)-1-(2-methyl-4-((3-methyl-[1,1′-biphenyl]-4-yl)methyl)-piperazine-1-carbonyl)-1H-pyrazole-3-carboxylic acid]
< 0.1 µM	Cc1ccc(Oc2cccc(CN3CCN(C(=O)n4ccc(C(=O)O)n4)CC3)c2)cc1 [Example 251, 1-(4-(3-(p-tolyloxy)benzyl)-piperazine-1-carbonyl)-1H-pyrazole-3-carboxylic acid]
< 0.1 µM	Cc1cn(C(=O)N2C[C@H]3C[C@H](OCc4cc(F)cc(Cl)c4)C[C@H]3C2)nc1C(=O)O [Example 252, 1-(trans-5-((3-chloro-5-fluorobenzyl)oxy)-octahydrocyclopenta-[c]pyrrole-2-carbonyl)-4-methyl-1H-pyrazole-3-carboxylic acid]
< 0.1 µM	C[C@@H]1CN(Cc2ccc(-c3ccccc3)cc2F)CCN1C(=O)n1ccc(C(=O)O)n1 [Example 253, (R)-1-(4-((3-fluoro-[1,1′-biphenyl]-4-yl)methyl)-2-methylpiperazine-1-carbonyl)-1H-pyrazole-3-carboxylic acid]
< 0.1 µM	Cc1cc(O[C@H]2C[C@@H]3CN(C(=O)n4ccc(C(=O)O)n4)C[C@@H]3C2)ccc1C(F)(F)F [Example 254, 1-(trans-5-(3-methyl-4-(trifluoromethyl)-phenoxy)-octahydrocyclopenta-[c]pyrrole-2-carbonyl)-1H-pyrazole-3-carboxylic acid]
< 0.1 µM	C[C@@H]1C[C@H](N(C)Cc2cccc(C(F)(F)F)c2)CCN1C(=O)n1ccc(C(N)=O)n1 [Example 257, 1-((2R,4R)-2-methyl-4-(methyl(3-(trifluoromethyl)-benzyl)amino)-piperidine-1-carbonyl)-1H-pyrazole-3-carboxamide]
< 0.1 µM	CN(Cc1cccc(C(F)(F)F)c1)C1(C)CCN(C(=O)n2ccc(C(N)=O)n2)CC1 [Example 258]
< 0.1 µM	C[C@H]1C[C@H](N(C)Cc2cccc(C(F)(F)F)c2)CCN1C(=O)n1ccc(C(N)=O)n1 [Example 259, 1-((2S,4R)-2-methyl-4-(methyl(3-(trifluoromethyl)-benzyl)amino)-piperidine-1-carbonyl)-1H-pyrazole-3-carboxamide]
< 0.1 µM	C[C@@H]1C[C@@H](N(C)Cc2cccc(C(F)(F)F)c2)CCN1C(=O)n1ccc(C(N)=O)n1 [Example 260, 1-((2R,4S)-2-methyl-4-(methyl(3-(trifluoromethyl)-benzyl)amino)-piperidine-1-carbonyl)-1H-pyrazole-3-carboxamide]
